32 compounds from PubChem BioAssay (NCI) can be followed below.

Each structure is given as a SMILES string. Values joined by “and” are separate entries in the source; they are usually repeats but may differ in a detail not shown here. Equal entries are not always repeated.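 Interpolation was linear, between the two tested concentrations surrounding the appropriate level; five concentrations were tested over 48 hours in 96-well plates. GI50: concentration for 50% inhibition of growth. TGI: concentration producing complete growth inhibition.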

Common to all, as to test: NCI-60 cell line screen, 48 h
For assay [1], the system named is NCI/ADR-RES ovarian.
Assay [2] has as its system LXFL 529 NSCLC.
Assay [3] relates to SNB-78 CNS.
Assay [4] has as its system DMS 273 small cell lung.
Assay [5] relates to XF 498 CNS.
Assay [6] has as its system DLD-1 colon.
For assay [7], the system named is MDA-N.
Assay [8] has as its system HOP-18 NSCLC.

Turning to `O=C(NCCN1CCC(O)CC1)c1cc2c(o1)C(=O)c1ccccc1C2=O`, in assay [1], the GI50 was 1.52 µM and the TGI is 5.24 µM.
Regarding `NC(CC(=O)Nc1ccc(Cl)cc1)=Nc1ccccc1`, the TGI in assay [2], in assay [3], in assay [4], in assay [5] and in assay [6] was greater than 100 µM in each case.
`CCOc1ccccc1N1C(=O)C(=O)C(c2nc3ccccc3o2)/C(=N\N)C1=O` (stereo not given): the TGI in assay [2], in assay [3], in assay [4] and in assay [6] was greater than 100 µM in each case.
On to `CCO/C=C1\N=C(C(Cl)c2ccccc2)OC1=O` (stereo not given), for which the TGI in assay [2], in assay [3], in assay [4], in assay [5] and in assay [6] was greater than 100 µM in each case.
In turn, `COc1c2c(c(CC=C(C)C)c3oc(=O)c(-c4ccc(O)cc4)c(O)c13)OC(C)(C)C=C2` gave a TGI in assay [1] of 93.7 µM.
Regarding `CCOc1ccc2nc(-c3cccc(OCC(=O)NC(C)C)c3)nc(Nc3ccc(-c4cn[nH]c4)cc3)c2c1`, in assay [1], the GI50 was 1.92 µM and the TGI worked out at 22.9 µM.
For `C[n+]1c2ccccc2c(Nc2ccc(NS(=O)(=O)CCCCN=C(N)N)cc2)c2ccc(N)cc21`, in that order: greater than 100 µM and greater than 100 µM.
Take `Fc1cccc(CSc2ncnc3c2ncn3C2CCCS2)c1` (stereo not given): the TGI in assay [7] was 56.8 µM; in assay [1] it was 96.7 µM.
For `CC(=O)OCc1ccc(O)c(C=O)c1`, in that order: greater than 100 µM and greater than 100 µM.
In the case of `O=c1nc(NC(c2ccccc2)(c2ccccc2)c2ccccc2)ccn1CCO`, the TGI in assay [2], in assay [8], in assay [3] and in assay [6] was greater than 100 µM in each case.
Consider `COc1ccc2nc(NCN3C(=O)c4ccccc4C3=O)sc2c1`, for which the TGI in assay [7] and in assay [1] was greater than 100 µM in each case.
Take `COc1cc(C=O)c(-c2cc3c(cc2C2(C)OCCS2)OCO3)c(OC)c1OC` (stereo not given): the TGI in assay [2] was 54 µM; in assay [3], greater than 239 µM; in assay [4], 36.8 µM; in assay [5] it was 37.1 µM; in assay [6], 50.7 µM.
Consider `CC1(C)N=C(N)N=C(N)N1c1ccc(CCc2ccc(Cl)cc2S(=O)(=O)F)c(Cl)c1`, for which, in assay [1], the GI50 was greater than 100 µM and the TGI was greater than 100 µM.
For `CN1CCN(C(=O)c2c(NC(=O)NS(=O)(=O)c3ccccc3)sc3c2CCCCC3)CC1`, in assay [1], the GI50 was 34 µM and the TGI is greater than 100 µM.
As to `Nc1nc(NC2C=C(CO)C(O)C2O)c([N+](=O)[O-])c(=O)[nH]1` (stereo not given), the TGI in assay [2], in assay [8], in assay [3], in assay [4], in assay [5] and in assay [6] was greater than 100 µM each time.
Turning to `c1ccc(Nn2c(CCCCCCCCc3nnc(COc4ccccc4)n3Nc3ccccc3)nnc2COc2ccccc2)cc1`, in assay [1], the GI50 was 11.5 µM and 20.6 µM; the TGI is greater than 300 µM.
With `O=C(NC12CC3CC(CC(C3)C1)C2)C(=O)c1c[nH]c2ccc([N+](=O)[O-])cc12`, the TGI in assay [2] was greater than 100 µM; in assay [8] it was greater than 90.9 µM; in assay [4], 45 µM; in assay [5] it was 60.6 µM.
In the case of `COc1cc2cc3c4c(cc(OC)c(OC)c4c2cc1OC)CCN3C(=O)N(C)C`, the TGI in assay [2], in assay [3], in assay [4] and in assay [6] was greater than 100 µM throughout.
Consider `Oc1ccc2ccccc2c1C1NN=C(c2ccccc2)S1` (stereo not given), for which, in assay [1], the GI50 was 0.383 µM and the TGI was found to be 62.8 µM.
For `COc1ccc2c(c1)c1nc3cc(C)c(C)cc3nc1n2CCN(C)C`, in that order: 0.599 µM and 2.46 µM.
For `N#Cc1ccc(C2C3=C(CCCC3=O)OC3=C2C(=O)c2ccccc2C3=O)cc1` (stereo not given), in assay [1], the GI50 is 0.899 µM and the TGI came out at 7.81 µM.
In the case of `NC(=O)C(=Cc1ccc(CP(=O)(O)O)cc1)C(N)=O`, the TGI in assay [2], in assay [8], in assay [3], in assay [4], in assay [5] and in assay [6] was greater than 100 µM throughout.
Take `C[C@]1(C(=O)O)N[C@H](C(=O)O)CS1`: in assay [1], the GI50 was greater than 1000 µM and the TGI is greater than 1000 µM.
Regarding `Clc1ccc(C(c2ccc(Cl)cc2)N2CCNCC2)cc1`, the values for the TGI in assay [7] and in assay [1] were 3.62 µM and 13.6 µM, respectively.
With `N#C/C(=C\Nc1ccccn1)C(=O)c1ccco1`, the TGI in assay [7] and in assay [1] was greater than 100 µM each time.
On to `COc1cc2c(cc1OC)-c1ccc3cc4c(cc3c1N(CCN(C)C)C2)OCO4`, for which, in assay [1], the GI50 is 10.9 µM and the TGI was 45.6 µM.
The matching figures for `C[C@@H](NC(=O)[C@@H](CC(=O)N1CCC(N2CCCCC2)CC1)N1C(=O)[C@@H](N2C(=O)OC[C@@H]2c2ccccc2)[C@H]1/C=C/c1cccc(Cl)c1)c1ccccc1`: 5.92 µM and 24.8 µM.
On to `COc1ccc2c3c(c4ccccc4cc13)C(=O)N(CCN(C)CCN)C2=O`, for which, in assay [1], the GI50 was 0.116 µM and the TGI came to 1.65 µM.
As for `COC(=O)c1ccc(NC(=O)c2cc(OC)c(OC)c(OC)c2)cc1`, the TGI in assay [2], in assay [8], in assay [4] and in assay [6] was greater than 100 µM in each case.
For the compound `COc1cc(-c2csc(NC(=O)Nc3cc(C(F)(F)F)cc(C(F)(F)F)c3)n2)cc(OC)c1OC`, in assay [1], the GI50 is 2.65 µM and the TGI worked out at 12.1 µM.
Consider `COc1ccc([I+]c2ccccc2)cc1`, for which, in assay [1], the GI50 was greater than 100 µM and the TGI is greater than 100 µM.
Turning to `Cc1ccc(C(=O)/C(=C\c2ccc([N+](=O)[O-])cc2)S(=O)Cc2ccc(F)cc2)cc1` (stereo not given), in assay [1], the GI50 was 2.28 µM and the TGI is 5.97 µM.
